Values joined by “and” are separate entries in the source; they are usually repeats but may differ in a detail not shown here. Identical values can stand only once. “Also recorded” adds a separate entry of the source. Like-named read-outs stand apart in the source and are kept apart here. Bridge positions count the residues as written; N and C are the ends. Square brackets hold non-standard residues; d marks the D form. Triazole bridges read from a SMILES are 1,4-linked. Ends that are not written are not given here. Peptide text beside a SMILES is read from it. * marks the point of attachment. Biotin = O=C1N[C@H]2[C@H](CS[C@H]2CCCCC(=O)*)N1; PEG10 = NCCOCCOCCOCCOCCOCCOCCOCCOCCOCCOCCC(=O)O; Lys(N3) = [N-]=[N+]=NCCCC[C@H](N)C(=O)O; Pra = C#CC[C@H](N)C(=O)O
What was measured:
[1] = biological target: full-length recombinant MrkA protein (Klebsiella pneumoniae, UniProt P12267); format: binding; conditions: [MrkA] 25 nM
full-length recombinant MrkA protein, sequence (P12267 23-202): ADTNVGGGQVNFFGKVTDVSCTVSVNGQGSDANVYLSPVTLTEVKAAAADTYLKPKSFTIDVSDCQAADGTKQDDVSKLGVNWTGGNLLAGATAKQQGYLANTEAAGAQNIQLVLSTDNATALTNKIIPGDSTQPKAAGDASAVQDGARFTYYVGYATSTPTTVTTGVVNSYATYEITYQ
Text: HPraGly is present before X1 in each peptide and Az4 follows X5 in each peptide.

[2] = Isocratic point, elution from C18 prep-scale column; format: physicochemical; conditions: elution from C18 column
Procedure: PCC compounds were purified on a Waters Autopurification system, which isolated compounds based on MS peaks corresponding to protonated [M+1H]^+ and [M+2H]^2+, and/or sodium adducts [M+Na]^+ and [M+2Na]^2+. The isocratic points of PCCs were determined based on the elution of the compound from a C18 prep-scale column. Synthetic epitopes were either purified on the Waters Autopurification System, or by semi-preparative HPLC and then using matrix-assisted laser desorption/ionization mass spectroscopy to identify fractions with the desired m/z ratio. The resulting peptides were lyophilized, the yield determined by mass difference or UV-visible absorbance, and resuspended at a concentration of up to 10 mM peptide in DMSO. Peptides were stored at −80° C. before thawing for each use.

[3] = test system: K. pneumoniae (strains BAA 1705 & 2146); experiment: Whole-cell ELISA, biotinylated PCC, multidrug-resistant K. pneumoniae; format: cell-based, Klebsiella pneumoniae; conditions: biotinylated PCC at 5 μM, FIG. 5C
Procedure: Detection of the binding of biotinylated PCCs to bacterial surface was performed as follows. 10^8 bacteria from a culture grown overnight were used for each test. […] After washing thrice with PBS to remove unbound PCCs, bacteria were incubated with Streptavidin-HRP (1:1000) for 1 h at 37° C. Bacteria were washed thoroughly and the TMB reagent was added until visible coloration was observed. The reaction was quenched using 2N H2SO4 and absorbance was measured at 450 nm.

[4] = test system: K. pneumoniae cells (strain BAA 2146); experiment: Flow cytometry, recruitment of fluorescent anti-DNP antibodies; format: cell-based, Klebsiella pneumoniae; conditions: cy(LLFFF)-DNP 1 or 5 μM; cy(HNGPT) 50 μM; plus fluorescent anti-DNP
Procedure: To test this, cells were incubated with DNP-conjugated EPIs and then fluorescently labeled anti-DNP antibody (Alexafluor488), and subsequently quantified the fluorescence of cells by using flow cytometry.
Cytometry measurements were gated for single cells, and each distribution comprises >18,000 cells.
Cytometry measurements were used to quantify AR-PCC-driven opsonization and opsonophagocytic killing of K. pneumoniae cells. For these measurements, K. pneumoniae cells were cultured in G-CAA medium overnight, washed, incubated with DNP-tagged AR-PCC at a desired concentration, washed, incubated with anti-DNP antibody conjugated with Alexafluor488, washed, then resuspended in PBS media. The samples were stored at 4° C. for 2 d before cytometry measurements were performed. The cytometer was calibrated by using Rainbow fluorescent beads (3.5 μm diameter) 3.5 m from BD (559123), which aided identification of single K. pneumoniae cells in subsequent measurements. Samples were excited with 488 nm light and the fluorescence emission at 530 nm was measured. Sample with no Alexaflour488 stain was used as fluorescent minus one (FMO) control for gating of DNP+ population. FACS data was analyzed on FlowJo v10 software, and the resulting histograms each include fluorescence data from >18,000 cells for strain BAA 2146 (FIG. 4B) and >4,000 cells for strain BAA 1705 (data not shown).

[5] = test system: K. pneumoniae cells (strain BAA 1705); experiment: Gentamicin protection assay: phagocytosis and opsonophagocytic killing (OPK) by macrophages; format: cell-based, Klebsiella pneumoniae; conditions: for phagocytosis at 1 h, AR-PCC only (no anti-DNP): control samples; for colony counts at 1 h, EPI plus anti-DNP antibody: 5 μM AR-PCC, murine BMDMs
Procedure: It also tested whether DNP-conjugated EPIs could promote the opsonophagocytic killing (OPK) of K. pneumoniae by macrophages. This was tested by using an OPK assay. Briefly, K. pneumoniae cells were treated with EPI and then anti-DNP antibody before being exposed to macrophages for either 6 or 24 hours. During this incubation period, macrophages that recognize K. pneumoniae cells will phagocytose them, and phagocytosed bacteria will remain viable for up to 6 hours, but within 24 hours are rendered inviable by OPK. Thus, macrophages were isolated after 6 and 24 hours of incubation with K. pneumoniae, lysed them, and plated and grew the lysate, which yielded bacterial colonies that reflect the phagocytosis (at 6 hrs) or OPK (at 24 hrs) of bacteria.
Given that cy(LLFFF)-DNP (SEQ ID NO:5) recruits antibodies to K. pneumoniae surfaces, it was expected that K. pneumoniae opsonized in this manner would be more susceptible to phagocytosis by macrophages. AR-PCC-driven phagocytosis and OPK were quantified by a gentamicin protection assay, as depicted in FIG. 7A. For this assay, K. pneumoniae cells (strain BAA 1705) were treated with cy(LLFFF)-DNP (SEQ ID NO:5), opsonized by anti-DNP antibodies, and then incubated with murine bone-marrow-derived macrophages (BMDMs). BMDMs were subsequently exposed to a solution containing gentamicin, to which K. pneumoniae strain BAA 1705 is susceptible, to kill any extracellular bacteria. Phagocytosed bacteria remain viable inside BMDMs for at least 1 h, yet are rendered inviable after 24 h by OPK (FIG. 13). Macrophages harvested at 1 h and 24 h were lysed and plated to generate bacterial colonies, which were enumerated to quantify phagocytosis and OPK.
Klebsiella pneumoniae BAA1705 was treated with DNP-PCCs followed by incubation with anti-DNP antibody, as described above in the “Cell-Based ELISAs” section. These opsonized bacteria were then used to infect BMDMs at a multiplicity of infection of 50 for 0.5 h at 37° C. Bacteria were then washed by using RPMI 1640 Media and BMDMs were left in cell culture medium containing gentamicin (100 μg/ml). After 1 h and 24 h BMDMs were washed to remove gentamicin and intracellular bacteria were harvested by lysing BMDMs in RPMI media containing 0.2% Triton X 100. Bacterial CFUs were enumerated by plating onto LB agar. Bacterial counts at 1 h indicated the degree of opsonization while those at 24 h served as a measure of microbicidal activity of macrophages. For these measurements, anti-MrkA antibody and K. pneumoniae antiserum were used at dilutions of 5 μg/mL each.

Compound	Isocratic point (%) [2]	Relative affinity (ratio of ELISA signal versus cy(LLFFF)) ([1]; ELISA 6)	phagocytosis at 1 h, AR-PCC only (no anti-DNP) ([5]; 1 h)	other results
CC(C)C[C@@H]1NC(=O)[C@@H](NC(=O)CCOCCOCCOCCOCCOCCOCCOCCOCCOCCOCCNC(=O)[C@H](CCCNC(=N)N)NC(=O)[C@H](CCCNC(=N)N)NC(=O)[C@H](CCCNC(=N)N)NC(=O)[C@H](CCCNC(=N)N)NC(=O)[C@H](CCCNC(=N)N)NC(=O)[C@H](CCCNC(=N)N)NC(=O)[C@H](CCCNC(=N)N)NC(=O)[C@H](CCCNC(=N)N)NC(=O)[C@H](CCCNC(=N)N)NC(=O)CCOCCOCCOCCOCCOCCOCCOCCOCCOCCOCCNC(=O)CCCC[C@@H]2SC[C@@H]3NC(=O)N[C@@H]32)Cc2cn(nn2)CCCC[C@@H](C(N)=O)NC(=O)[C@H](Cc2ccccc2)NC(=O)[C@H](Cc2ccccc2)NC(=O)[C@H](Cc2ccccc2)NC(=O)[C@H](CC(C)C)NC1=O [compound 18]	37.03%	–	–	Relative affinity (ratio of ELISA signal versus cy(LLFFF)) ([1]; ELISA 5): 0.58
CC(C)C[C@@H]1NC(=O)[C@H](Cc2c[nH]cn2)NC(=O)[C@@H](NC(=O)CCOCCOCCOCCOCCOCCOCCOCCOCCOCCOCCNC(=O)CCCC[C@@H]2SC[C@@H]3NC(=O)N[C@@H]32)Cc2cn(nn2)CCCC[C@@H](C(N)=O)NC(=O)[C@H](Cc2ccccc2)NC(=O)[C@H](Cc2ccccc2)NC(=O)[C@H](Cc2ccccc2)NC1=O [compound 19] ({Biotin-PEG10}-[Pra]HLFFF[Lys(N3)]-NH2; triazole 1-7)	47.52%	0.81	–	–
CC(C)C[C@@H]1NC(=O)[C@H](CC(=O)O)NC(=O)[C@@H](NC(=O)CCOCCOCCOCCOCCOCCOCCOCCOCCOCCOCCNC(=O)CCCC[C@@H]2SC[C@@H]3NC(=O)N[C@@H]32)Cc2cn(nn2)CCCC[C@@H](C(N)=O)NC(=O)[C@H](Cc2ccccc2)NC(=O)[C@H](Cc2ccccc2)NC(=O)[C@H](Cc2ccccc2)NC1=O [compound 20] ({Biotin-PEG10}-[Pra]DLFFF[Lys(N3)]-NH2; triazole 1-7)	66.33%	0.21	–	–
CC(C)C[C@@H]1NC(=O)[C@@H](NC(=O)CCOCCOCCOCCOCCOCCOCCOCCOCCOCCOCCNC(=O)CCCC[C@@H]2SC[C@@H]3NC(=O)N[C@@H]32)Cc2cn(nn2)CCCC[C@@H](C(N)=O)NC(=O)[C@H](Cc2ccccc2)NC(=O)[C@H](Cc2ccccc2)NC(=O)[C@H](CC(C)C)NC1=O [compound 21] ({Biotin-PEG10}-[Pra]LLFF[Lys(N3)]-NH2; triazole 1-6)	64.99%	0.14	–	–
CC(C)C[C@@H]1NC(=O)[C@@H](NC(=O)CCOCCOCCOCCOCCOCCOCCOCCOCCOCCOCCNC(=O)CCCC[C@@H]2SC[C@@H]3NC(=O)N[C@@H]32)Cc2cn(nn2)CCCC[C@@H](C(N)=O)NC(=O)[C@H](Cc2ccccc2)NC(=O)[C@H](CC(C)C)NC1=O [compound 22] ({Biotin-PEG10}-[Pra]LLF[Lys(N3)]-NH2; triazole 1-5)	56.45%	0.09	–	–
NC(=O)[C@@H]1CCCCn2cc(nn2)C[C@H](NC(=O)CCOCCOCCOCCOCCOCCOCCOCCOCCOCCOCCNC(=O)CCCC[C@@H]2SC[C@@H]3NC(=O)N[C@@H]32)C(=O)N[C@@H](Cc2ccccc2)C(=O)N[C@@H](Cc2ccccc2)C(=O)N[C@@H](Cc2ccccc2)C(=O)N1 [compound 23] ({Biotin-PEG10}-[Pra]FFF[Lys(N3)]-NH2; triazole 1-5)	60.27%	0.14	–	–
cy(HNGPT) (not fully specified (bridges); printed as cy(HNGPT); also: cyclic, closure not given here) [reference compound]	–	–	–	whole-cell ELISA signal, K. pneumoniae BAA 1705 and BAA 2146 [3]: comparably lower signal; also recorded: no or minimal binding above baseline; fluorescence of cells [4]: Slightly greater fluorescence; CFU, DNP-conjugated EPI plus anti-DNP, macrophages harvested at 6 hrs ([5]; 6 hrs): almost identical CFU count; cell counts, DNP-conjugated EPI only (no antibody), macrophages harvested at 6 hrs ([5]; 6 hrs): ~35,000
cy(LLFFA)-DNP (not fully specified (bridges); printed as cy(LLFFA)-DNP; also: DNP label)	–	–	None of these treatments elicited phagocytosis above basal levels	phagocytosis at 1 h, DNP-tagged AR-PCC plus anti-DNP (words) ([5]; 1 h, FIG. 7B): None of these treatments elicited phagocytosis above basal levels
cy(LLFFF)+R6-DNP (LLFFFRRRRRR; not fully specified (C-terminus); printed as cy(LLFFF)+R6-DNP; also: cyclic over residues 1-5, ring closure not given here)	–	–	None of these treatments elicited phagocytosis above basal levels	colony counts at 1 h, EPI plus anti-DNP antibody ([5]; 1 h): 85,000 CFU
cy(LLFFF)-DNP (cyclo(LLFFF); also: DNP label)	–	–	None of these treatments elicited phagocytosis above basal levels	fluorescence of cells [4]: much higher fluorescence; colony counts at 1 h, EPI plus anti-DNP antibody ([5]; 1 h): 89,000 CFU and 85,000 CFU; level of phagocytosis lower than K. pneumoniae antiserum and anti-MrkA treatment ([5]; plus anti-DNP, 1 h): about 15%
